Values after ≈ are worked out from the molar mass of the structure shown. Counter-ions that a name gives are not always drawn. Like-named read-outs stand apart in the source and are kept apart here.
Experiments:
[1] = test system: E.coli S30 extract (bacterial protein synthesis); test: E.coli S30 extract: inhibition of bacterial protein synthesis (luciferase); type: biochemical; conditions: 37° C. for 1 hour
Experimental: E.coli S30 extract: Inhibition of bacterial protein synthesis was determined using the E.coli S30 Extract System for Circular DNA (Promega catalog #L-2010) and Luciferase Assay Reagent (Promega catalog #E1500) with slight modifications to a published protocol. Fyfe, C., Sutcliffe, J.A. and Grossman, T.H. (2012) “Development and characterization of a Pseudomonas aeruginosa in vitro coupled transcription-translation assay system for evaluation of translation inhibitors” J. Microbiol. Methods 90(3), 256-261.
Compounds were serial diluted in 0.5 mL microcentrifuge tubes by mixing and transferring 50 µL from the highest concentration to 50 µL of water, mixing and transferring 50 µL of this 2-fold dilution to 50 µL of water. This mixing and transferring was repeated so that there are a total of 8 tubes with serial dilutions of compound at 10× the desired screening concentration that are ultimately diluted to 1× by the addition of S30 luciferase synthesis mixture. Serial dilutions of compounds were added (2 µL) to wells in a black round bottom 96-well plate. Water (2 µL) was used as a “no inhibitor” control in 4 wells/plate. No DNA control reaction mixture (20 µL; see below) was used as a control in 4 wells/plate for background luminescence. S30 luciferase synthesis mixture (18 µL; see below) was added to wells with compounds or water mixture and incubated at 37° C. for 1 hour. Reactions were stopped by transferring to 4° C. refrigerator for 5 minutes then 25 µL of luciferase activity mix was added. Luminescence was measured using a BioTek Synergy HTX plate reader. % Inhibition was determined relative to no inhibitor controls.
S30 luciferase synthesis mixture: • 445 µL S30 extract, circular • 712 µL S30 Premix without amino acids • 4.45 µL pBESTluc™ DNA (1 µg/ µL) • 78 µL complete amino acid mixture • 267 µL water
No DNA control: • 20 µL S30 extract, circular • 32 µL S30 Premix without amino acids • 7 µL complete amino acid mixture • 21 µL water

[2] = test system: A.baumannii (Ab); test: Broth microdilution MIC against A.baumannii (Ab); type: cell-based; conditions: for MIC: Acinetobacter baumannii, read-out: Ab +bicarb 25 (MIC)
Experimental: (§1) A certified BSL-2 laboratory was used for testing. Compounds were evaluated using the broth microdilution minimum inhibitory concentration (MIC) and minimum bactericidal concentration (MBC) assays defined by Clinical and Laboratory Standards Institute (CLSI) in the M26-A guideline against S.aureus (Sa), E.coli (Ec), K.pneumoniae (Kp), A.baumannii (Ab), E.faecalis (Ef) and P.aeruginosa (Pa).
(§2) MICs were determined using the Clinical Laboratory and Standards Institute (CLSI) Broth Microdilution Method with slight modification. Clinical and Laboratory Standards Institute (2012). “Methods for dilution antimicrobial susceptibility tests for bacteria that grow aerobically; approved standard, 9th ed. M07-A9. Clinical and Laboratory Standards Institute, Wayne, PA.” Serial two-fold dilutions of compounds are prepared in sterile clear roundbottom 96-well plates.
(§3) To prepare microdilution trays, two-fold dilutions of antimicrobial agent are prepared in growth medium: Cation-Adjusted Mueller-Hinton Broth (CAMHB), or CAMHB supplemented with sodium bicarbonate (6.25 or 25 mM final concentration prepared from a 1.0 M stock solution) or CAMHB supplemented with heat inactivated human serum (Fisher Cat. # BP2657100) 0-50% by adding 200 µL of the highest concentration to be tested (64 µg/mL, for example) in row A, mixing and transferring 100 µL from row A to 100 µL growth medium in row B, then repeating the mixing and transferring through row H of the 96-well plate, discarding the excess 100 µL remaining. This slight modification to the CLSI protocol enables evaluation of MICs for 3 compounds per plate in triplicate, albeit with only 8 compound dilutions (CLSI protocol enables 2 compounds in triplicate with 10 dilutions). Bacterial suspensions are added to a final concentration of 5 × 10^4 CFU/well by adding 5 µL of a 1:10 dilution of a 0.5 McFarland suspension (1 × 10^8 CFU/mL) for each bacterium evaluated. Bacterial suspensions were prepared using the growth method described by CLSI. Well-isolated colonies (3-5 from an agar plate) were selected using a sterile loop and used to inoculate a tube containing 4 mL of CAMHB. The cultures are incubated at 35 ± 2° C. until it achieves or exceeds the turbidity of the 0.5 McFarland standard, determined by measuring A600nm (usually two to six hours). When growth exceeds a 0.5 McFarland standard, the turbidity is adjusted with broth to be equivalent to a 0.5 McFarland standard.

[3] = test system: S.aureus (Sa); test: Broth microdilution MIC against S.aureus (Sa); type: cell-based; conditions: Staphylococcus aureus, read-out: Sa + bicarb 25 (MIC)
Experimental: as §1, §2, §3

[4] = test system: E.faecalis (Ef); test: Broth microdilution MIC against E.faecalis (Ef); type: cell-based; conditions: Enterococcus faecalis, read-out: Ef +bicarb 25 (MIC)
Experimental: as §1, §2, §3

[5] = molecular target: Rabbit Reticulocyte Lysate (eukaryotic protein synthesis); test: Rabbit Reticulocyte Lysate: inhibition of eukaryotic protein synthesis (luciferase); type: biochemical; conditions: 30° C. for 90 minutes, read-out: retic. IC50
Experimental: Inhibition of eukaryotic protein synthesis was determined using the Rabbit Reticulocyte Lysate System, Nuclease-Treated from Promega (catalog #L-4960) with slight modifications to the manufacturer’s protocol. Compounds were serial diluted in 0.5 mL microcentrifuge tubes by mixing and transferring 50 µL from the highest concentration to 50 µL of water, mixing and transferring 50 µL of this 2-fold dilution to 50 µL of water. This mixing and transferring was repeated so that there are a total of 8 tubes with serial dilutions of compound at 10× the desired screening concentration that are ultimately diluted to 1× by the addition of rabbit reticulocyte luciferase synthesis mixture. Serial dilutions of compounds were added (2.5 µL) to wells in a black round bottom 96-well plate. Water (2.5 µL) was used as a “no inhibitor” control in 4 wells/plate. No RNA control reaction mixture (2 µL; see below) was used as a control in 4 wells/plate for background luminescence. Rabbit reticulocyte luciferase synthesis mixture (22.5 µL; see below) was added to wells with compounds or water mixture and incubated at 30° C. for 90 minutes. Luciferase assay reagent (25 µL) was added with luminescence measured using a BioTek Synergy HTX plate reader. % Inhibition was determined relative to no inhibitor controls.
Rabbit reticulocyte luciferase synthesis mixture: • 1,000 µL rabbit reticulocyte lysate • 5.7 µL Luciferase Control RNA (1 µg/ µL) • 26 µL complete amino acid mixture • 395 µL water
No RNA Control • 70 µL rabbit reticulocyte lysate • 2 µL complete amino acid mixture • 28 µL water

[6] = test system: E.coli (Ec); test: Broth microdilution MIC against E.coli (Ec); type: cell-based; conditions: for MIC: Escherichia coli
Experimental: as §1, §2, §3

[7] = test system: P.aeruginosa (Pa); test: Broth microdilution MIC against P.aeruginosa (Pa); type: cell-based; conditions: for MIC: Pseudomonas aeruginosa, read-out: Pa +bicarb 25 (MIC)
Experimental: as §1, §2, §3

[8] = CAMHB supplemented with sodium bicarbonate 25 mM
[9] = CAMHB supplemented with sodium bicarbonate 25 mM, read-out: E.coli + bicarb 25 (MIC)

Row | SMILES | IC50 [1] [nM] | MIC [2, 8] [µg/mL] | MIC [3, 8] [µg/mL] | MIC [4, 8] [µg/mL] | IC50 [5] [nM] | MIC [6, 9] [µg/mL] | MIC [7, 8] [µg/mL] | Ab +bicarb 25 (MIC) [2, 8] | MIC [3] [µg/mL] | MIC [4] [µg/mL] | E.coli + bicarb 25 (MIC) [6, 8] | MIC ([6]; read-out: E. coli + bicarb 6.25 (MIC)) [µg/mL] | Pa +bicarb 25 (MIC) [7, 8] | MIC [2] [µg/mL] | MIC ([6]; read-out: E.coli + bicarb 25 (MIC)) [µg/mL] | MIC [7] [µg/mL]
1 | CC(C)(N)C(=O)N1CCN(C(=O)Nc2ccn(-c3ccc4c(c3)CCC(N[C@H]3CC[C@H](N)C3)C4)c(=O)n2)CC1 (stereo in doubt) [Compound 10] | < 500 | > 32 | < 8 | < 8 | ≥ 1000 | < 8 | > 32 |  |  |  |  |  |  |  |  | 
2 | CC(C)(N)C(=O)N1CCN(C(=O)Nc2ccn(-c3ccc4c(c3)CCC(N[C@H]3CC[C@@H](N)CC3)C4)c(=O)n2)CC1 (stereo partly drawn) [Compound 6] | < 500 | > 32 | < 8 | < 8 | ≥ 1000 | < 8 | > 32 |  |  |  |  |  |  |  |  | 
3 | CC(C)(N)C(=O)N1CCN(C(=O)Nc2ccn(-c3ccc4c(c3)CCC(N[C@H]3CC[C@H](N)CC3)C4)c(=O)n2)CC1 (stereo partly drawn) [Compound 7] | < 500 | > 32 | < 8 | < 8 | ≥ 1000 | < 8 | > 32 |  |  |  |  |  |  |  |  | 
4 | CC(C)(N)C(=O)N1CCN(C(=O)Nc2ccn(-c3ccc4c(c3)CCC(NC3CC5(CC(N)C5)C3)C4)c(=O)n2)CC1 (stereo not drawn) [Compound 8] | < 500 | 8 to 32 (≈ 14.2 to 56.9 µM) | < 8 | < 8 | ≥ 1000 | < 8 | 8 to 32 (≈ 14.2 to 56.9 µM) |  |  |  |  |  |  |  |  | 
5 | CC(C)(N)C(=O)N1CCN(C(=O)Nc2ccn(-c3ccc4c(c3)CCC(N[C@H]3CC[C@H](N)C3)C4)c(=O)n2)CC1 (stereo partly drawn) [Compound 9, 4-(2-amino-2-methylpropanoyl)-N-(1-(6-(((1S,3S)-3-aminocyclopentyl)amino)-5,6,7,8-tetrahydronaphthalen-2-yl)-2-oxo-1,2-dihydropyrimidin-4-yl)piperazine-1-carboxamide hydrochloride salt] | < 500 |  |  |  | ≥ 1000 |  |  | + (An MIC value (µg/mL) that is 32 µg/mL or greater) | < 8 | < 8 | +++ (An MIC value (µg/mL) that is less than 8 µg/mL) | < 8 | + (An MIC value (µg/mL) that is 32 µg/mL or greater) |  |  | 
6 | CN(C1CCc2cc(-n3ccc(NC(=O)N4CCN(C(=O)C(C)(C)N)CC4)nc3=O)ccc2C1)C1CC2(CC(N)C2)C1 (stereo not drawn) [Compound 11] | 500 to 1000 | > 32 | < 8 | < 8 | ≥ 1000 | < 8 | > 32 |  |  |  |  |  |  |  |  | 
7 | CC(C)(N)C(=O)N1CCN(C(=O)Nc2ccn(-c3ccc4c(c3)OCC(N3C[C@@H]5[C@@H](CN)[C@@H]5C3)C4)c(=O)n2)CC1 (stereo partly drawn) [Compound 12, exo-4-(2-amino-2-methylpropanoyl)-N-(1-(3-(-6-(aminomethyl)-3-azabicyclo[3.1.0]hexan-3-yl)chroman-7-yl)-2-oxo-1,2-dihydropyrimidin-4-yl)piperazine-1-carboxamide hydrochloride salt] | ≥ 1000 | > 32 | 8 to 32 | > 32 | ≥ 1000 | < 8 | > 32 |  |  |  |  |  |  |  |  | 
8 | CC(C)(N)C(=O)N1CCN(C(=O)Nc2ccn(-c3ccc4c(c3)OCC(N3C[C@@H]5[C@@H](N)[C@@H]5C3)C4)c(=O)n2)CC1 (stereo partly drawn) [Compound 13, Hydrochloride Salt] | ≥ 1000 | 8 to 32 | 8 to 32 | 8 to 32 | ≥ 1000 | 8 to 32 | 8 to 32 |  |  |  |  |  |  |  |  | 
9 | CC(C)(N)C(=O)N1CCN(C(=O)Nc2ccn(-c3ccc4c(c3)OCC(N3CC[C@@H](CN)C3)C4)c(=O)n2)CC1 (stereo partly drawn) [Compound 14] | ≥ 1000 | 8 to 32 (≈ 14.9 to 59.4 µM) | < 8 | 8 to 32 (≈ 14.9 to 59.4 µM) | ≥ 1000 | < 8 | 8 to 32 (≈ 14.9 to 59.4 µM) |  |  |  |  |  |  |  |  | 
10 | CN(C1CCc2cc(-n3ccc(NC(=O)N4CCN(C(=O)C(C)(C)N)CC4)nc3=O)ccc2C1)[C@H]1CC[C@H](N)CC1 (stereo partly drawn) [Compound 15, 4-(2-amino-2-methylpropanoyl)-N-(1-(6-(((1r,4r)-4-aminocyclohexyl)(methyl)amino)-5,6,7,8-tetrahydronaphthalen-2-yl)-2-oxo-1,2-dihydropyrimidin-4-yl)piperazine-1-carboxamide hydrochloride salt] | < 500 | 8 to 32 | < 8 | < 8 | ≥ 1000 | < 8 | 8 to 32 |  |  |  |  |  |  |  |  | 
11 | CCN(C1CCc2cc(-n3ccc(NC(=O)N4CCN(C(=O)C(C)(C)N)CC4)nc3=O)ccc2C1)[C@H]1CC[C@H](N)CC1 (stereo partly drawn) [Compound 16, 4-(2-Amino-2-methylpropanoyl)-N-(1-(6-(((trans)-4-aminocyclohexyl)(ethyl)amino)-5,6,7,8-tetrahydronaphthalen-2-yl)-2-oxo-1,2-dihydropyrimidin-4-yl)piperazine-1-carboxamide hydrochloride salt] | < 500 |  |  |  | ≥ 1000 |  |  |  | < 8 | < 8 |  |  |  | 8 to 32 | < 8 | 8 to 32
